Data set [1] has as its system Histomonas meleagridis. As to conditions: 300-400 ppm, cited from earlier work.
Data set [2] concerns the target cathepsin L (Homo sapiens, UniProt P07711). The note with it: cited from earlier work.
For data set [3], the system named is T. gallinae. Briefly: in vitro viability of T. gallinae (viable-to-dead ratio, DAPI staining). The note with it: different concentrations; after 24 hours of treatment. In kind it is cell-based, Trichomonas gallinae. As for the experimental part: (§1) Z—FY—CHO was tested in an in vitro assay on growth and viability of two strains of T. gallinae (Vienna strain and ATCC 30095). T. gallinae is cultured in vitro under axenic conditions. Both strains are cultured in ATCC® Medium 2154 (LYI Entamoeba medium) which is prepared according to the recommendations of ATCC. Culture conditions are anaerobic at 37° C. Cultures are kept in sterile 50 ml plastic tubes in a total volume of 10 ml. T. gallinae cultures are passaged regularly (in two-day intervals) in advance to maintain the strains for the study.
(§2) Five concentrations of each substance were tested against T. gallinae, namely 1 nM, 10 nM, 100 nM, 1000 nM, and 10000 nM. The total exposure time of the test compounds for the efficacy assay was 72 hours; media were renewed in intervals of 24 hours. Efficacy was measured after 24 hours of incubation.
The total parasite number is calculated before a subsample is subject to counting of viable and dead parasites. For counting, parasites are stained by DAPI nucleus staining for differentiation of viable and dead parasites.

Data set [4] is described as follows: side effects in the in vivo pigeon study. The note with it: 10 mg/kg per day oral, 4 days, pigeons. More on the design: species or system Columba livia forma domestica. The procedure:
(§3) Thirty Columba livia forma domestica of both gender (2 groups of fifteen birds) were inoculated per os via a syringe with 2 million T. gallinae cultured from the Vienna strain. Initial age of the pigeons was 4-5 months. Two days later the pigeons were treated with twice daily oral administration of 5 mg/kg of Z—FY—CHO or the placebo (vehicle alone) during 4 days. The formulation was composed of 50 mg of the agent added to 1.0 ml 96 g/v % ethanol and 4 gram of prewarmed Solutol HS15. The formulation was stirred to a clear solution, then it was topped up with prewarmed distilled water to a volume of 10 ml. From this solution 0.1 ml per 100 g body weight was administered (=5 mg/kg). […] Regurgitation has been detected first in one pigeon from the placebo group in the evening on day of infection. […] No gross pathological findings in the esophagus or crop were detected during the necropsy. However, heterophilic infiltrates in the mucosa as well as in the submucous tissue and lymphocytes and plasmacells in the submucous tissue have been detected histopathologically in total eight pigeons (27%). Catarrhal erosive esophagitis and ingluvitis was significant more often detected in pigeons from the placebo group (7 of 8 pigeons with inflammatory reaction of the esophagus and crop, 88%; p=0.018).

In data set [5] the test system is T. gallinae cultured from the Vienna strain. Briefly: in vivo efficacy study in pigeons inoculated with T. gallinae. Also on record: species or system Columba livia forma domestica. The note with it: 5 mg/kg oral twice daily during 4 days, 15 birds per group. The procedure: as §3
In data set [6] the test system is coccidiae. Put plainly: coccidiosis finding in the in vivo pigeon study. More on the design: species or system Columba livia forma domestica. The note with it: 5 mg/kg oral twice daily during 4 days; 3 of 15 placebo pigeons still showed coccidiae. As for the experimental part: as §3
Data set [7] has as its system T. gallinae. Briefly: in vitro growth of T. gallinae (total trophozoite number). The format is cell-based, Trichomonas gallinae. As to conditions: 10,000 nM, after 24 hours of treatment, normalized to 1% DMSO-treated group NCA. As for the experimental part:
as §1
Quantification of total parasite number: The total parasite number is calculated separately for each tube. Therefore, the contents of each tube are centrifuged and the sediment resuspended in a given volume. A dilution of a subsample is being examined in a Neubauer counting chamber, the total number of parasites counted and the number of parasites in the respective tube be calculated.
Each treatment group consists of 3 identical replicates, i.e. 3 tubes with identical treatment (triplicate).
as §2

Data set [8] deals with Eimeria spp. As to conditions: 20 mg/kg body weight, up to 14 days before the experimental infection; on average; cited from earlier work.

Residues, ends and D or L forms follow the SMILES beside them. *: point of attachment. Cbz = O=C(OCc1ccccc1)*; tBu = CC(C)(C)*

cathepsin L, sequence (P07711 114-333, species assumed): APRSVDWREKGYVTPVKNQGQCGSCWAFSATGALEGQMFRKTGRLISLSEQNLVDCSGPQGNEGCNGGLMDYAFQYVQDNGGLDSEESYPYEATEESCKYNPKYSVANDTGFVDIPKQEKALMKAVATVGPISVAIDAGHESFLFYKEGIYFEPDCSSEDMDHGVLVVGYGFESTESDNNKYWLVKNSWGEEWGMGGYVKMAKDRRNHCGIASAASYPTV

For the molecule `CC1CS(=O)(=O)CCN1/N=C/c1ccc([N+](=O)[O-])o1` (stereo not drawn) [Nifurtimox], the tolerability entry in data set [1] (turkeys) is recorded as “tolerated by turkeys”. Moreover, the “efficacy (antiprotozoal)” value in data set [1] is “effective”.

With `O=C[C@H](Cc1ccccc1)NC(=O)[C@H](Cc1ccccc1)NC(=O)OCc1ccccc1` [a, Z-Phe-Phe-CHO] (Cbz-Phe-Phe-aldehyde), the IC50 in data set [2] is 0.74 nM. On to `O=C[C@H](Cc1ccc(O)cc1)NC(=O)[C@H](Cc1ccccc1)NC(=O)OCc1ccccc1` [b, N-(benzyloxycarbonyl)-L-phenylalanyl-L-tyrosinal] (Cbz-Phe-Tyr-aldehyde), for which, in data set [3], the “viable-to-dead ratios compared to the control group NCA” value is on record as “Markedly lower”. The side effects result in data set [4] was “no obvious and/or statistically significant side effects”. Further, in data set [5] (placebo 7 of 15, p=0.018), the pigeons with regurgitation result was “one”. For the same molecule, the “pigeons with catarrhal erosive esophagitis and ingluvitis (histopathology)” value in data set [5] (placebo 7 pigeons, p=0.018) was “one”. In data set [6], the “detection of coccidiae after treatment” value is “no coccidiae could be detected”. Moreover, the results for the “trophozoite number relative to group NCA (control group)” value in data set [7] (ATCC 30095 strain) and in data set [7] (Vienna strain) were 26.3% and 24.0%, respectively. With `CC(C)C[C@@H](C=O)NC(=O)[C@H](Cc1ccccc1)NC(=O)OCc1ccccc1` [c, Z-Phe-Leu-CHO] (Cbz-Phe-Leu-aldehyde), in data set [2], the 50% inhibitory concentration (IC50) is 0.78 nM. Turning to `C[C@@H](C=O)NC(=O)[C@H](Cc1ccccc1)NC(=O)OCc1ccccc1` [d, Z-Phe-Ala-CHO], the IC50 in data set [2] was 15.5 nM. Turning to `COc1ccc(C[C@@H](C=O)NC(=O)[C@H](Cc2ccccc2)NC(=O)OCc2ccccc2)cc1` [e, Z-Phe-Tyr(Me)-CHO] (Cbz-Phe-Tyr(Me)-aldehyde), in data set [2], the IC50 is 2.95 nM. In the case of `CC(C)(C)Oc1ccc(CC(C=O)NC(=O)C(Cc2ccccc2)NC(=O)OCc2ccccc2)cc1` (stereo not drawn) [f, Z-Phe-Tyr(Bu)-CHO] (Cbz-Phe-Tyr(tBu)-aldehyde; configuration not given here), in data set [2], the IC50 is 6.96 nM. As to `Cc1cc(-n2c(=O)[nH]c(=O)n(C)c2=O)ccc1Oc1ccc(SC(F)(F)F)cc1` [toltrazuril], in data set [8], the “reduction in the number of oocysts in individual fecal samples” value is given as “more than 97%”.

As usually defined, the IC50 is the midpoint of a concentration-inhibition curve.

The values above are taken from patent US20190030113A1, “DIPEPTIDYL ALDEHYDES FOR THE TREATMENT AND/OR PREVENTION OF PARASITIC DISEASES” (AXIAVA PHARMA UG, priority 2017, published 2019).
